Values joined by “and” are separate entries in the source; they are usually repeats but may differ in a detail not shown here. Identical values can stand only once. Inconclusive results and toxic doses are left out.
Test system: L1210 leukemia ip in BDF1 mice, survival T/C
Assay: NCI In Vivo Anticancer Drug Screen. Data for tumor model L1210 Leukemia (intraperitoneal) in B6D2F1 (BDF1) mice
Details: endpoint: mean survival time, higher = longer survival
How it was run: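 Antitumor effect is assessed in tumor-bearing animals. Survival in the compound arm is compared with a vehicle-dosed control arm and expressed as their quotient.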

[1] = dose: 100.0 mg/kg/injection, schedule: Q01DX001 (ip), vehicle: Klucel (hydroxypropylcellulose) (HPC)
[2] = dose: 200.0 mg/kg/injection, schedule: Q01DX001 (ip), vehicle: Klucel (hydroxypropylcellulose) (HPC)
[3] = dose: 400.0 mg/kg/injection, schedule: Q01DX001 (ip), vehicle: Klucel (hydroxypropylcellulose) (HPC)
[4] = dose: 100.0 mg/kg/injection, schedule: Q01DX001 (ip), vehicle: other
[5] = dose: 200.0 mg/kg/injection, schedule: Q01DX001 (ip), vehicle: other
[6] = dose: 400.0 mg/kg/injection, schedule: Q01DX001 (ip), vehicle: other
[7] = dose: 100.0 mg/kg/injection, schedule: Q01DX009 (ip), vehicle: saline with Tween-80
[8] = dose: 200.0 mg/kg/injection, schedule: Q01DX009 (ip), vehicle: saline with Tween-80
[9] = dose: 100.0 mg/kg/injection, schedule: Q04DX003 (ip), vehicle: Klucel (hydroxypropylcellulose) (HPC)
[10] = dose: 200.0 mg/kg/injection, schedule: Q04DX003 (ip), vehicle: Klucel (hydroxypropylcellulose) (HPC)
[11] = dose: 400.0 mg/kg/injection, schedule: Q04DX003 (ip), vehicle: Klucel (hydroxypropylcellulose) (HPC)
[12] = dose: 100.0 mg/kg/injection, schedule: Q01DX001 (ip), vehicle: saline
[13] = dose: 200.0 mg/kg/injection, schedule: Q01DX001 (ip), vehicle: saline
[14] = dose: 400.0 mg/kg/injection, schedule: Q01DX001 (ip), vehicle: saline
[15] = dose: 100.0 mg/kg/injection, schedule: Q01DX009 (ip), vehicle: Klucel (hydroxypropylcellulose) (HPC)
[16] = dose: 200.0 mg/kg/injection, schedule: Q01DX009 (ip), vehicle: Klucel (hydroxypropylcellulose) (HPC)
[17] = dose: 400.0 mg/kg/injection, schedule: Q01DX009 (ip), vehicle: Klucel (hydroxypropylcellulose) (HPC)

CCOC(=S)c1ccc(S(=O)(=O)NC)cc1
T/C [1]: 109 % of control
T/C [2]: 100 % of control
T/C [3]: 110 % of control

O=C1CCCCCCCCCOC(=O)CCCCCCCCCO1
T/C [1]: 94 % of control
T/C [2]: 94 % of control
T/C [3]: 91 % of control

CN(C)c1ccc(/C=N/Nc2nnc(N/N=C/c3ccc(N(C)C)cc3)c3ccccc23)cc1
T/C (dose: 50.0 mg/kg/injection, schedule: Q01DX001 (ip), vehicle: carboxymethylcellulose (CMC)): 98 % of control and 91 % of control
T/C (dose: 100.0 mg/kg/injection, schedule: Q01DX001 (ip), vehicle: carboxymethylcellulose (CMC)): 86 % of control
T/C (dose: 200.0 mg/kg/injection, schedule: Q01DX001 (ip), vehicle: carboxymethylcellulose (CMC)): 93 % of control and 91 % of control
T/C (dose: 400.0 mg/kg/injection, schedule: Q01DX001 (ip), vehicle: carboxymethylcellulose (CMC)): 100 % of control and 104 % of control

CC(=O)OC1COC(NC(=O)N(CCCl)N=O)C(OC(C)=O)C1OC(C)=O (stereo not given)
T/C (dose: 9.0 mg/kg/injection, schedule: Q01DX001 (ip), vehicle: saline with Tween-80): 211 % of control
T/C (dose: 13.0 mg/kg/injection, schedule: Q01DX001 (ip), vehicle: saline with Tween-80): 284 % of control
T/C (dose: 20.0 mg/kg/injection, schedule: Q01DX001 (ip), vehicle: saline with Tween-80): 459 % of control
T/C (dose: 30.0 mg/kg/injection, schedule: Q01DX001 (ip), vehicle: saline with Tween-80): 294 % of control

Cc1ccc(S(=O)(=O)C2CCCC/C2=N\Nc2ccc([N+](=O)[O-])cc2[N+](=O)[O-])cc1 (stereo not given)
T/C [4]: 105 % of control
T/C [5]: 103 % of control
T/C [6]: 96 % of control

CCCCCCCCCC(=O)N/N=C/c1cccc([N+](=O)[O-])c1
T/C [7]: 97 % of control
T/C [8]: 91 % of control
T/C (dose: 400.0 mg/kg/injection, schedule: Q01DX009 (ip), vehicle: saline with Tween-80): 100 % of control

O=[N+]([O-])c1cc(Cl)c(Cl)cc1N1CCCC1
T/C [9]: 93 % of control
T/C [10]: 88 % of control
T/C [11]: 101 % of control

CCN(CC)CCOc1ccccc1C
T/C (dose: 20.0 mg/kg/injection, schedule: Q01DX009 (ip), vehicle: saline): 90 % of control
T/C (dose: 40.0 mg/kg/injection, schedule: Q01DX009 (ip), vehicle: saline): 88 % of control
T/C (dose: 40.0 mg/kg/injection, schedule: Q04DX003 (ip), vehicle: saline): 106 % of control
T/C (dose: 80.0 mg/kg/injection, schedule: Q01DX009 (ip), vehicle: saline): 89 % of control
T/C (dose: 80.0 mg/kg/injection, schedule: Q04DX003 (ip), vehicle: saline): 100 % of control

CC(C(=O)O)(c1c[nH]c2ccccc12)c1c[nH]c2ccccc12
T/C (dose: 50.0 mg/kg/injection, schedule: Q01DX001 (ip), vehicle: saline): 106 % of control
T/C [12]: 103 % of control
T/C [13]: 92 % of control
T/C [14]: 86 % of control

O=C(Nc1ccc(C(=O)O)c(O)c1)Oc1ccccc1
T/C [9]: 90 % of control
T/C [10]: 98 % of control
T/C [11]: 107 % of control

O=C(Nc1cccc(S(=O)(=O)F)c1)/C(=C/c1ccc([N+](=O)[O-])cc1)c1ccccc1
T/C [1]: 89 % of control
T/C [2]: 99 % of control
T/C [3]: 99 % of control

Cc1cc(N(CCCl)CCCl)ccc1C=Nc1ccccc1-c1ccccc1
T/C (dose: 5.0 mg/kg/injection, schedule: Q01DX Z (ip), vehicle: carboxymethylcellulose (CMC)): 110 % of control
T/C (dose: 10.0 mg/kg/injection, schedule: Q01DX Z (ip), vehicle: carboxymethylcellulose (CMC)): 114 % of control
T/C (dose: 40.0 mg/kg/injection, schedule: Q01DX Z (ip), vehicle: carboxymethylcellulose (CMC)): 109 % of control
T/C (dose: 80.0 mg/kg/injection, schedule: Q01DX Z (ip), vehicle: carboxymethylcellulose (CMC)): 117 % of control

CCSc1nc2ccccc2s1
T/C [4]: 93 % of control
T/C [5]: 98 % of control

CCCCOC(=O)c1cccc2c1-c1ccccc1C2=O
T/C [4]: 86 % of control
T/C [5]: 93 % of control
T/C [6]: 91 % of control

COc1cc([N+](=O)[O-])ccc1-c1c(C(=O)O)cccc1[N+](=O)[O-]
T/C [9]: 101 % of control
T/C [10]: 95 % of control
T/C [11]: 90 % of control

CCOC(=O)C(CC(=O)O)C(c1ccccc1)c1ccccc1 (stereo not given)
T/C [1]: 99 % of control
T/C [15]: 105 % of control and 106 % of control
T/C (dose: 100.0 mg/kg/injection, schedule: Q04DX002 (ip), vehicle: Klucel (hydroxypropylcellulose) (HPC)): 98 % of control and 103 % of control
T/C [2]: 94 % of control
T/C [16]: 103 % of control and 105 % of control
T/C (dose: 200.0 mg/kg/injection, schedule: Q04DX002 (ip), vehicle: Klucel (hydroxypropylcellulose) (HPC)): 98 % of control and 100 % of control
T/C [3]: 99 % of control
T/C [17]: 98 % of control and 118 % of control
T/C (dose: 400.0 mg/kg/injection, schedule: Q04DX002 (ip), vehicle: Klucel (hydroxypropylcellulose) (HPC)): 98 % of control and 103 % of control

Cc1ncc(C(C)(O)c2ccccc2)n1C (stereo not given)
T/C [7]: 105 % of control
T/C [8]: 94 % of control

CCCCCCCCCCc1ccc(CCCCCCCCCC)cc1
T/C (dose: 100.0 mg/kg/injection, schedule: Q01DX001 (ip), vehicle: saline with Tween-80): 94 % of control
T/C (dose: 200.0 mg/kg/injection, schedule: Q01DX001 (ip), vehicle: saline with Tween-80): 92 % of control
T/C (dose: 400.0 mg/kg/injection, schedule: Q01DX001 (ip), vehicle: saline with Tween-80): 99 % of control

CCOC(=O)CCC1C(C#N)C2(Cl)C(Cl)=C(Cl)C1(Cl)C2(Cl)Cl (stereo not given)
T/C [15]: 98 % of control
T/C [9]: 93 % of control
T/C [16]: 98 % of control
T/C [10]: 93 % of control
T/C [17]: 96 % of control
T/C [11]: 92 % of control

CCCCC(=O)NN
T/C (dose: 12.5 mg/kg/injection, schedule: Q01DX009 (ip), vehicle: saline with Tween-80): 103 % of control
T/C (dose: 22.0 mg/kg/injection, schedule: Q01DX009 (ip), vehicle: saline with Tween-80): 110 % of control
T/C (dose: 25.0 mg/kg/injection, schedule: Q01DX009 (ip), vehicle: saline with Tween-80): 111 % of control and 112 % of control
T/C (dose: 50.0 mg/kg/injection, schedule: Q01DX009 (ip), vehicle: saline with Tween-80): 100 % of control
T/C (dose: 60.0 mg/kg/injection, schedule: Q01DX009 (ip), vehicle: saline with Tween-80): 118 % of control

c1ccc2cc(-c3csc4ccccc34)ccc2c1
T/C [15]: 104 % of control
T/C [9]: 110 % of control
T/C [16]: 94 % of control
T/C [10]: 97 % of control
T/C [17]: 103 % of control
T/C [11]: 100 % of control

Cn1c(=O)cc(/C=C/c2ccc(-c3ccccc3)cc2)c2ccccc21
T/C [12]: 103 % of control
T/C [13]: 93 % of control
T/C [14]: 93 % of control

CCc1c(CNc2ccc(C(=O)NC(CC(=O)O)C(=O)O)cc2)ccc2nc(N)nc(N)c12 (stereo not given)
T/C (dose: 0.06 mg/kg/injection, schedule: Q01DX009 (ip), vehicle: saline): 112 % of control
T/C (dose: 0.25 mg/kg/injection, schedule: Q01DX009 (ip), vehicle: saline): 150 % of control and 184 % of control
T/C (dose: 0.5 mg/kg/injection, schedule: Q01DX009 (ip), vehicle: saline): 150 % of control
T/C (dose: 0.5 mg/kg/injection, schedule: Q04DX003 (ip), vehicle: saline): 112 % of control
T/C (dose: 1.0 mg/kg/injection, schedule: Q01DX009 (ip), vehicle: saline): 90 % of control and 91 % of control
T/C (dose: 4.0 mg/kg/injection, schedule: Q04DX003 (ip), vehicle: saline): 154 % of control
T/C (dose: 8.0 mg/kg/injection, schedule: Q04DX003 (ip), vehicle: saline): 113 % of control

OCCCCC(O)c1ccccc1 (stereo not given)
T/C (dose: 100.0 mg/kg/injection, schedule: Q01DX009 (ip), vehicle: saline): 107 % of control
T/C (dose: 100.0 mg/kg/injection, schedule: Q04DX003 (ip), vehicle: saline): 116 % of control
T/C (dose: 200.0 mg/kg/injection, schedule: Q01DX009 (ip), vehicle: saline): 96 % of control
T/C (dose: 200.0 mg/kg/injection, schedule: Q04DX003 (ip), vehicle: saline): 107 % of control
T/C (dose: 400.0 mg/kg/injection, schedule: Q01DX009 (ip), vehicle: saline): 100 % of control
T/C (dose: 400.0 mg/kg/injection, schedule: Q04DX003 (ip), vehicle: saline): 112 % of control

O=C(COc1ccccc1)Nc1cccc(C(=O)O)c1
T/C [9]: 104 % of control
T/C [10]: 93 % of control
T/C [11]: 109 % of control
